Experimental data taken from publication PMC8145107 (Pharmaceutics, 2021).

How the values were obtained:
[1] = test system: A549 cells; assay: Cell death by PI staining / flow cytometry, A549; type: cell-based, human; conditions: PI staining, CompuSyn
Protocol: (§1) Cells were plated in 6-well culture plates at a density of 1 × 10^5 cells/well. Compounds were applied to the cells immediately after seeding. When cells were harvested, cells were washed once with 1× phosphate-buffered saline (PBS), dissociated using Trypsin-EDTA, and centrifuged at 13,000 rpm for 3 min at 4 °C. Next, 1 mL of 1× PBS was added to wash the pellet again. Finally, 1 mL of 1× PBS and 1 μg/mL of propidium iodide (PI) were added to each polystyrene round-bottom tube. Flow cytometric analysis was performed using a FACS flow cytometer (BD Bioscience). To measure cell death, 10^4 cells were counted, and PI-stained cells were analyzed. FACS analysis in accordance with the manufacturer’s instruction. […]
(§2) Table S1. CI values of NSCLC cell lines.
(§3) Cell line Combination drug NA 10 µM NA 20 µM
(§4) CI values were calculated from the data of percent inhibition of cell death by PI staining. Each CI
(§5) value was analyzed by CompuSyn software. […]

[2] = test system: NCI-H1975 cells; assay: Cell death by PI staining / flow cytometry, NCI-H1975; type: cell-based, human; conditions: NA 10 µM + gefitinib 10 µM, CompuSyn
Protocol: as §1, §2, §3, §4, §5

[3] = test system: NCI-H460 xenograft; assay: NCI-H460 tumor xenograft in mice; type: in vivo, BALB/c nude mice; conditions: NA49 20 mg/kg IP every other day + cisplatin 2 mg/kg IP twice a week
Protocol: (§6) NCI-H460 single-cell suspension (1 × 10^6 cells) was injected subcutaneously into the hind legs of 6-week-old BALB/c nude mice (Orientbio, Korea). […] NCI-H1650 single-cell suspension (1 × 10^7 cells) was injected subcutaneously into the hind leg of 6-week-old NOD-SCID mice (Koatech, Korea). When tumors reached a minimal volume of 150 mm^3, xenograft mice were treated 7 times with J2 or NA49 by local regional application with or without gefitinib (5 mg/kg) by IP injection. For this, J2 or NA49 (20 mg/kg) was injected by IP every two days, and gefitinib was injected every three days. Tumor volumes were determined according to the formula (L × l^2)/2, by measuring tumor length (L) and width (l) with a caliper. Tumors were measured every other day and allowed to grow for 15 or 34 days. All procedures for animal experiments were in accordance with the guidelines by the Ewha Woman’s University Institutional Animal Care and Use Committee (IACUC, 18-006), Seoul, Korea.

[4] = test system: NCI-H460 cells; assay: Cell death by PI staining / flow cytometry, NCI-H460; type: cell-based, human; conditions: H460, PI staining, CompuSyn
Protocol: as §1, §2, §3, §4, §5

[5] = test system: NCI-H1975 cells; assay: MTT viability assay, NCI-H1975; type: cell-based; conditions: Homo sapiens, 24 h
Protocol: (§7) The human NSCLC cell lines of NCI-H460, A549, HCC827, PC9, NCI-H1650, and NCI-H1975 were obtained from the American Type Culture Collection (Rockville, MD, USA). Cells were cultured in RPMI 1640 medium containing 10% FBS, 2 mmol/L L-glutamine, and 100 units/mL of penicillin and streptomycin and maintained at 37 °C in a humidified incubator containing 5% CO2.
(§8) Cell viability against gefitinib-, cisplatin-, and NA49-induced toxicity was determined using an MTT (Amersham Pharmacia Biotech) assay in 96-well plates. […] Next, cells were incubated with 100 µL of 5 mg/mL 3-(4,5-dimethylthiazol-2-yl)-2,5-diphenyltetrazolium bromide (Sigma Aldrich, M5655) for 2 h. After the MTT mixture was removed, 100 µL of DMSO was added to each well, and absorbance at 540 nm was measured using an ELISA plate reader (TECAN, Twinfinite PRO).

[6] = test system: NCI-H1650 xenograft; assay: NCI-H1650 tumor xenograft in mice; type: in vivo, NOD-SCID mice; conditions: NA49 20 mg/kg IP every other day + Gef 5 mg/kg IP
Protocol: as §6

[7] = test system: HCC827 cells; assay: Cell death by PI staining / flow cytometry, HCC827; type: cell-based, human; conditions: NA 10 µM + gefitinib 0.01 µM, CompuSyn
Protocol: as §1, §2, §3, §4, §5

[8] = test system: NCI-H1650 cells; assay: Cell death by PI staining / flow cytometry, NCI-H1650; type: cell-based, human; conditions: CompuSyn
Protocol: as §1, §2, §3, §4, §5

[9] = test system: HCC827 cells; assay: MTT viability assay, HCC827; type: cell-based; conditions: Homo sapiens, 24 h
Protocol: as §7, §8

[10] = test system: NCI-H1650 cells; assay: MTT viability assay, NCI-H1650; type: cell-based; conditions: Homo sapiens, 24 h
Protocol: as §7, §8

Q: How did the “CI value (combination index)” value ([1]; NA 10 µM + cisplatin 5 µM) turn out when `COc1ccc(-c2coc3cc(OCC4CS4)ccc3c2=O)c(OC)c1` (stereo not shown) [NA49] was run?
A: 0.698

Q: What about the “CI value (combination index)” value ([1]; NA 20 µM + cisplatin 5 µM) of the same molecule?
A: 0.823

Q: What about the “CI value (combination index)” value [2] of the same molecule?
A: 0.392

Q: And the “Tumor growth, combination with NA49 compared to cisplatin alone” value [3]?
A: greater reduction in tumor growth

Q: And the “CI value (combination index)” value ([4]; NA 10 µM + cisplatin 3 µM)?
A: 0.942

Q: And the “CI value (combination index)” value ([4]; NA 20 µM + cisplatin 3 µM)?
A: 0.969

Q: And the IC50 [5]?
A: 89.4 ± 2.57 µM

Q: And the “Tumor growth, combination with NA49 compared to Gef alone” value [6]?
A: greater reduction in tumor growth

Q: What about the “CI value (combination index)” value [7] of the same molecule?
A: 0.651

Q: And the “CI value (combination index)” value ([8]; NA 10 µM + gefitinib 10 µM)?
A: 0.828

Q: And the “CI value (combination index)” value ([8]; NA 10 µM + gefitinib 20 µM)?
A: 0.487

Q: What about the IC50 [9] of the same molecule?
A: 64.4 ± 2.31 µM

Q: And the IC50 [10]?
A: 62.9 ± 1.58 µM
